Experimental data as given in the supplement of paper PMC10307832.

Experiments:
Test in all cases: relative viability (nuclei count vs DMSO), 5 days (fraction); higher = more cells survive
Tivantinib + Phenformin = compound: O=C1NC(=O)[C@@H](c2cn3c4c(cccc24)CCC3)[C@@H]1c1c[nH]c2ccccc12 [Tivantinib] + N=C(N)NC(=N)NCCc1ccccc1 [Phenformin] (partner 250 µM)
How it was run: (§1)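 Lung cancer cell lines in 1536-well plates got either a single drug or a fixed anchor-drug dose together with five library-drug doses (not always all listed) in √10 steps, by pin tool, on the day after seeding. Nuclei were counted after 5 days, and relative viability is the treated-to-vehicle ratio of nuclei counts. Values are medians of duplicate plates.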

Crenolanib + OSI-027 = compound: CC1(COc2ccc3c(c2)ncn3-c2ccc3cccc(N4CCC(N)CC4)c3n2)COC1 [Crenolanib] + COc1cccc2cc(-c3nc([C@H]4CC[C@H](C(=O)O)CC4)n4ncnc(N)c34)[nH]c12 [OSI-027] (partner 0.5 µM)
How it was run: as §1

Crenolanib + Crizotinib = compound: CC1(COc2ccc3c(c2)ncn3-c2ccc3cccc(N4CCC(N)CC4)c3n2)COC1 [Crenolanib] + C[C@@H](Oc1cc(-c2cnn(C3CCNCC3)c2)cnc1N)c1c(Cl)ccc(F)c1Cl [Crizotinib] (partner 1 µM)
How it was run: as §1

Tivantinib + Pemetrexed = compound: O=C1NC(=O)[C@@H](c2cn3c4c(cccc24)CCC3)[C@@H]1c1c[nH]c2ccccc12 [Tivantinib] + Nc1nc2[nH]cc(CCc3ccc(C(=O)N[C@@H](CCC(=O)O)C(=O)O)cc3)c2c(=O)[nH]1 [Pemetrexed] (partner 0.2 µM)
How it was run: as §1

**Q.** How did the relative viability (Tivantinib + Phenformin; first compound 0.01 µM) turn out when UMC-11 was run?
**A.** 0.331

**Q.** What about the relative viability (Tivantinib + Phenformin; first compound 0.03162 µM) of the same cell line?
**A.** 0.338

**Q.** What about the relative viability (Tivantinib + Phenformin; first compound 0.1 µM) of the same cell line?
**A.** 0.289

**Q.** And the relative viability (Tivantinib + Phenformin; first compound 0.3162 µM)?
**A.** 0.371

**Q.** What about the relative viability (Crenolanib + OSI-027; first compound 0.01 µM) of the same cell line?
**A.** 0.523

**Q.** And the relative viability (Crenolanib + OSI-027; first compound 0.03162 µM)?
**A.** 0.535

**Q.** What about the relative viability (Crenolanib + OSI-027; first compound 0.1 µM) of the same cell line?
**A.** 0.538

**Q.** What about the relative viability (Crenolanib + OSI-027; first compound 0.3162 µM) of the same cell line?
**A.** 0.546

**Q.** What about the relative viability (Crenolanib + OSI-027; first compound 1 µM) of the same cell line?
**A.** 0.514

**Q.** And the relative viability (Crenolanib + Crizotinib; first compound 0.01 µM)?
**A.** 0.624

**Q.** What about the relative viability (Crenolanib + Crizotinib; first compound 0.03162 µM) of the same cell line?
**A.** 0.568

**Q.** What about the relative viability (Crenolanib + Crizotinib; first compound 0.1 µM) of the same cell line?
**A.** 0.674

**Q.** And the relative viability (Crenolanib + Crizotinib; first compound 0.3162 µM)?
**A.** 0.804

**Q.** What about the relative viability (Crenolanib + Crizotinib; first compound 1 µM) of the same cell line?
**A.** 0.606

**Q.** And the relative viability (Tivantinib + Pemetrexed; first compound 0.01 µM)?
**A.** 0.772

**Q.** And the relative viability (Tivantinib + Pemetrexed; first compound 0.03162 µM)?
**A.** 0.759

**Q.** And the relative viability (Tivantinib + Pemetrexed; first compound 0.1 µM)?
**A.** 0.75

**Q.** And the relative viability (Tivantinib + Pemetrexed; first compound 0.3162 µM)?
**A.** 0.803
